Test results published in patent US20220305137A1, “DRUG CONTAINING TARGETING LIPOSOMES” (NEXTAR CHEMPHARMA SOLUTIONS LTD., priority 2019, published 2022).

Assay: Doxorubicin brain concentration after intravenous administration, LC-MS/MS
Conditions: mice, 7.5 mg/kg intravenous
Method: A study was performed to determine doxorubicin distribution after administration, when comparing three doxorubicin-containing compositions, each administered to a group of 10 male ICR mice aged 7 weeks. Composition 1 was free doxorubicin.
Animals were administered doxorubicin in the following amount per administration, for each of the three compositions. Composition 1, was administered in HEPES solution at a dose of 7.5 mg/kg, in a volume of 100 microliter (μl) via the intravenous route. Compositions 2 and 3 were each administered at a dose of 15 mg/kg (equivalent of doxorubicin) in a volume of 300 μl via the intravenous route.
Five mice in each group were sacrificed one hour post administration, and five mice four hours post administration, and doxorubicin brain concentrations were determined using an LC-MS/MS method.

Structure (SMILES): COc1cccc2c1C(=O)c1c(O)c3c(c(O)c1C2=O)C[C@@](O)(C(=O)CO)C[C@@H]3O[C@H]1C[C@H](N)[C@H](O)[C@H](C)O1 [Composition 1, doxorubicin]
- doxorubicin brain concentration (60 minutes post administration): low brain concentration
- doxorubicin brain concentration (240 minutes post administration): low brain concentration
